US12006311B2, “Compounds for use in preventing or treating cancer” (FUNDACIÓ HOSPITAL UNIVERSITARI VALL D'HEBRON—INSTITUT DE …, priority 2018, dated 2024)

Columns and labels:
[1] = test system: rhabdomyosarcoma cell line RD; assay: cell growth test based on Methyl violet staining, RD; conditions: RD cells; for anti-proliferative activity (cell growth in percentage with respect to the vehicle control): 10 microM, 5 days of incubation, compared with Vismodegib (FIG. 3)
Method: (§1) FIG. 3 represents the effects (in percentage with respect to the vehicle control DMSO) of five compounds according to formula (I) (IUCT-0460, IUCT-0462, IUCT-0463, IUCT-0467, IUCT-0469) and the reference compound Vismodegib on cell growth of RD rhabdomyosarcoma cells after 5 day incubation (mean+/−SD). All compounds were used at a concentration of 10 microM. Statistical analysis was performed using ANOVA. As statistical differences were observed (p=0), the pairwise comparison against the vehicle control was made using the Tukey test. Notation: ***=statistically-significant difference with a p-value<0.001, **=p-value<0.01 and *=p-value<0.05.
(§2) The measurements were taken using an in vitro test to measure cell growth based on Methyl violet staining after 5 days of incubation with the aforementioned drugs or control vehicle (DMSO). The procedure was carried out in a 96-well plate and cells were fixed for 30 minutes with 4% paraformaldehyde (PFA) at room temperature. After 3 washes with phosphate-buffered saline (PBS), cells were stained for 30 minutes at room temperature with Methyl violet (dilution 1/25 of a stock solution made with 1.5% w/v in PBS). After 5 washes, and the addition of acetic acid (15% in water), plates were read in a spectrophotometer at 590 nm. All conditions were tested in 8 independent wells and results expressed as a mean of all replicates (FIG. 3).
Additional measurements using the same procedure were made specifically for the compound IUCT-0463 to obtain a dose-response curve from 1 to 50 μM in the cell line RD.

[2] = test system: rhabdomyosarcoma cell line RH4; assay: cell growth test based on Methyl violet staining, RH4; conditions: for anti-proliferative activity (cell growth in percentage with respect to vehicle-treated cells): 10 microM, 5 days of incubation, compared with Vismodegib (FIG. 1)
Method: as §1, with “FIG. 1” for “FIG. 3”, “effects in” for “effects (in”, “to vehicle-treated cells (DMSO)” for “to the vehicle control DMSO)”, “of RH4” for “of RD”
as §2, with “1).” for “3).”
Additional measurements using the same procedure were made specifically for the compound IUCT-0463 to obtain a dose-response curve from 1 to 50 μM in the cell line RH4.

[3] = test system: panel of cancer cell lines (RD, RH4, RH30, SKNBE2, SKNAS, U373MG, SKES1, TC71, PC3, HeLa, A549, MDA-MB231, HCT116); assay: cell growth test based on Methyl violet staining, panel of cancer cell lines; conditions: panel of 13 cancer cell lines, 10 microM, 5 day incubation (FIG. 5)
Method: The cell lines analyzed are as follows: RD, RH4 and RH30 (rhabdomyosarcoma, RMS); SKNBE2 and SKNAS (neuroblastoma, NBL); U373MG (glioblastoma, GBL); SKES1 and TC71 (Ewing's sarcoma, EWING); PC3 (prostate cancer, PC); HeLa (epitheloid cervix carcinoma, ECC); A549 (lung cancer, LC); MDA-MB231 (breast cancer, BC) and HCT116 (colorectal cancer, CC). Statistical analysis was performed using ANOVA. As statistical differences were observed (p=0), the pairwise comparison against the vehicle control was made using the Tukey test. Notation: ***=statistically-significant difference with a p-value<0.001, **=p-value<0.01 and *=p-value<0.05.
With the compound showing a better cell growth reduction (IUCT-0463), additional tests were performed with the aim of studying the possible application of this family of compounds to other cancers. The procedure was carried out in a 96-well plate and cells were fixed for 30 minutes with 4% paraformaldehyde (PFA) at room temperature. After 3 washes with phosphate-buffered saline (PBS), cells were stained for 30 minutes at room temperature with Methyl violet (dilution 1/25 of a stock solution made with 1.5% w/v in PBS). After 5 washes, and the addition of acetic acid (15% in water), plates were read in a spectrophotometer at 590 nm.

SMILES | anti-proliferative activity (cell growth in percentage with respect to the vehicle control) [1] | anti-proliferative activity (cell growth in percentage with respect to vehicle-treated cells) [2] | anti-tumor activity, dose-response curve ([1]; dose-response curve from 1 to 50 μM, compared with Vismodegib (FIG. 4)) | cell proliferation (cell growth in percentage with respect to the vehicle control) [3] | anti-tumor activity, dose-response curve ([2]; RH4 cells, dose-response curve from 1 to 50 μM, compared with Vismodegib (FIG. 2))
COc1ccccc1-c1ccc(N2CCCC(NS(=O)(=O)c3cc(Cl)c(Cl)s3)C2=O)c(F)c1 (stereo not shown) [IUCT-0460, 4,5-Dichloro-N-(1-(3-fluoro-2′-methoxy-[1,1′-biphenyl]-4-yl)-2-oxopiperidin-3-yl)thiophene-2-sulfonamide] | better anti-proliferative activity than the reference compound Vismodegib | better anti-proliferative activity than the reference compound Vismodegib | – | – | –
COc1ccccc1-c1ccc(N2CCCC(NS(=O)(=O)c3ccc4c(c3)OCO4)C2=O)c(F)c1 (stereo not shown) [IUCT-0462, N-(1-(3-fluoro-2′-methoxy-[1,1′-biphenyl]-4-yl)-2-oxopiperidin-3-yl)benzo[d][1,3]dioxole-5-sulfonamide] | better anti-proliferative activity than the reference compound Vismodegib | better anti-proliferative activity than the reference compound Vismodegib | – | – | –
CCOC(=O)CN(C1CCCN(c2ccc(-c3ccccc3OC)cc2F)C1=O)S(=O)(=O)c1ccc(-c2ccccn2)s1 (stereo not shown) [IUCT-0469, Ethyl N-(1-(3-fluoro-2′-methoxy-[1,1′-biphenyl]-4-yl)-2-oxopiperidin-3-yl)-N-((5-(pyridin-2-yl)thiophen-2-yl)sulfonyl)glycinate] | better anti-proliferative activity than the reference compound Vismodegib | better anti-proliferative activity than the reference compound Vismodegib | – | – | –
COc1ccccc1-c1ccc(N2CCCC(NS(=O)(=O)c3ccc(-c4ccccn4)s3)C2=O)c(F)c1 (stereo not shown) [IUCT-0463, N-(1-(3-fluoro-2′-methoxy-[1,1′-biphenyl]-4-yl)-2-oxopiperidin-3-yl)-5-(pyridin-2-yl)thiophene-2-sulfonamide] | better anti-proliferative activity than the reference compound Vismodegib | better anti-proliferative activity than the reference compound Vismodegib | clear improvement of the anti-tumor activity when compared to the reference compound Vismodegib | remarkable rediction of cell proliferation in the majority of the cell lines analized | clear improvement of the anti-tumor activity when compared to the reference compound Vismodegib
COc1ccccc1-c1ccc(N2CCCC(N(CC(=O)N3CCOCC3)S(=O)(=O)c3ccc4c(c3)OCO4)C2=O)c(F)c1 (stereo not shown) [IUCT-0467, N-(1-(3-fluoro-2′-methoxy-[1,1′-biphenyl]-4-yl)-2-oxopiperidin-3-yl)-N-(2-morpholino-2-oxoethyl)benzo[d][1,3]dioxole-5-sulfonamide] | better anti-proliferative activity than the reference compound Vismodegib | better anti-proliferative activity than the reference compound Vismodegib | – | – | –
